Data: patent US20100249172A1, “9-CHLORO NOSCAPINE AND ITS USE IN TREATING CANCERS, INCLUDING DRUG-RESISTANT CANCERS” (EMORY UNIVERSITY, priority 2007, published 2010)

Experiments:
MCF-7 cells = assay: Cell cycle analysis by flow cytometry (propidium iodide); assay type: cell-based, human; conditions: for G0/G1 % / G2/M % / S % / Sub-G1 %: mean ± S.E.M.; for accumulation of cells in the G2/M phase (in words): 24 hours; for percent sub-G1 cells compared with noscapine: lower doses (5 μM and 10 μM), 72 hours
Experimental: The flow cytometric evaluation of the cell cycle status was performed as described previously. Briefly, 2×10^6 cells were centrifuged, washed twice with ice-cold PBS, and fixed in 70% ethanol. Tubes containing the cell pellets were stored at 4° C. for at least 24 hours. Cells were then centrifuged at 1000×g for 10 min and the supernatant was discarded. The pellets were washed twice with 5 ml of PBS and then stained with 0.5 ml of propidium iodide (0.1% in 0.6% Triton-X in PBS) and 0.5 ml of RNase A (2 mg/ml) for 45 minutes in dark. Samples were then analyzed on a FACSCalibur flow cytometer (Beckman Coulter Inc., Fullerton, Calif.).
To investigate the precise mechanisms of cell death, the effect of 9-cloro-noscapine and other halogenated noscapine analogs on percent G2/M cells (mitotic index) and percent sub-G1 cells (apoptotic index) was examined as a function of dose and time in MCF-7 cells using fluorescence activated cell sorting (FACS) analysis. The effect of all compounds including noscapine was evaluated at three doses-5 μM, 10 μM and 25 μM for 0, 24, 48 and 72 hours of drug treatment. […] Fluorescently labeled DNA is a good indicator of cell cycle progression and cell death. An unreplicated complement of diploid (2N) DNA cells represents the G1 phase while duplicated tetraploid (4N) DNA cells represent G2 and M phases. Cells in the process of DNA duplication between diploid and tetraploid peaks represent S phase when DNA is being synthesized. Less than diploid DNA appears in populations of dying cells that degrade their DNA to different extents. Treatment of MCF-7 cells with these compounds for 0, 24, 48 and 72 hours led to profound perturbations of the cell cycle profile at 25 μM (FIGS. 3 A-D). […] The distribution of cell population over G0/G1, S, G2/M and sub-G1 phases of the cell cycle for 25 μM concentration is shown in Table 1.

tubulin = conditions: literature value [18]; read-out: dissociation constant (Kd) for binding to tubulin; cited from earlier work

COc1ccc2c(c1OC)C(=O)O[C@@H]2[C@H]1c2c(c(Br)c3c(c2OC)OCO3)CCN1C [9-Br-nos]
G0/G1 % (MCF-7 cells; 25 μM, 0 h): 53.3 ± 2.8%
G2/M % (MCF-7 cells; 25 μM, 0 h): 28.9 ± 4.4%
S % (MCF-7 cells; 25 μM, 0 h): 12.7 ± 1.8%
Sub-G1 % (MCF-7 cells; 25 μM, 0 h): 0.2 ± 0.1%
G0/G1 % (MCF-7 cells; 25 μM, 24 h): 10.4 ± 1.8%
G2/M % (MCF-7 cells; 25 μM, 24 h): 61.9 ± 3.6%
S % (MCF-7 cells; 25 μM, 24 h): 3.4 ± 1.2%
Sub-G1 % (MCF-7 cells; 25 μM, 24 h): 6.9 ± 2.4%
accumulation of cells in the G2/M phase (in words) (MCF-7 cells; 25 μM): massive accumulation of cells in the G2/M phase
G0/G1 % (MCF-7 cells; 25 μM, 48 h): 6.5 ± 2.5%
G2/M % (MCF-7 cells; 25 μM, 48 h): 43.8 ± 3.4%
S % (MCF-7 cells; 25 μM, 48 h): 2.8 ± 0.7%
Sub-G1 % (MCF-7 cells; 25 μM, 48 h): 35.1 ± 3.5%
G0/G1 % (MCF-7 cells; 25 μM, 72 h): 4.6 ± 2.1%
G2/M % (MCF-7 cells; 25 μM, 72 h): 33.7 ± 3.5%
S % (MCF-7 cells; 25 μM, 72 h): 2.4 ± 1.6%
percent sub-G1 cells compared with noscapine (MCF-7 cells): higher

COc1ccc2c(c1OC)C(=O)O[C@@H]2[C@H]1c2c(c(F)c3c(c2OC)OCO3)CCN1C [9-F-nos]
G0/G1 % (MCF-7 cells; 25 μM, 0 h): 67.7 ± 5.6%
G2/M % (MCF-7 cells; 25 μM, 0 h): 18.5 ± 2.2%
S % (MCF-7 cells; 25 μM, 0 h): 11.9 ± 1.5%
Sub-G1 % (MCF-7 cells; 25 μM, 0 h): 0.2 ± 0.04%
G0/G1 % (MCF-7 cells; 25 μM, 24 h): 10.8 ± 2.4%
G2/M % (MCF-7 cells; 25 μM, 24 h): 65.9 ± 4.4%
S % (MCF-7 cells; 25 μM, 24 h): 3.8 ± 1.1%
Sub-G1 % (MCF-7 cells; 25 μM, 24 h): 6.8 ± 2.1%
accumulation of cells in the G2/M phase (in words) (MCF-7 cells; 25 μM): massive accumulation of cells in the G2/M phase
G0/G1 % (MCF-7 cells; 25 μM, 48 h): 7.9 ± 2.8%
G2/M % (MCF-7 cells; 25 μM, 48 h): 43.7 ± 2.9%
S % (MCF-7 cells; 25 μM, 48 h): 3.5 ± 0.8%
Sub-G1 % (MCF-7 cells; 25 μM, 48 h): 34.5 ± 2.5%
G0/G1 % (MCF-7 cells; 25 μM, 72 h): 5.2 ± 2.2%
G2/M % (MCF-7 cells; 25 μM, 72 h): 34.4 ± 3.4%
S % (MCF-7 cells; 25 μM, 72 h): 3.6 ± 1.5%
Sub-G1 % (MCF-7 cells; 25 μM, 72 h): 48.6 ± 3.3%
percent sub-G1 cells compared with noscapine (MCF-7 cells): higher

COc1ccc2c(c1OC)C(=O)O[C@@H]2[C@H]1c2c(c(I)c3c(c2OC)OCO3)CCN1C [9-I-nos]
sub-G1 population compared with noscapine (MCF-7 cells; 25 μM): slightly lower
G0/G1 % (MCF-7 cells; 25 μM, 0 h): 60.6 ± 4.6%
G2/M % (MCF-7 cells; 25 μM, 0 h): 23.1 ± 3.7%
S % (MCF-7 cells; 25 μM, 0 h): 13.9 ± 2.3%
Sub-G1 % (MCF-7 cells; 25 μM, 0 h): 0.3 ± 0.2%
G0/G1 % (MCF-7 cells; 25 μM, 24 h): 17 ± 2.3%
G2/M % (MCF-7 cells; 25 μM, 24 h): 44.5 ± 5.1%
S % (MCF-7 cells; 25 μM, 24 h): 3.1 ± 1.3%
Sub-G1 % (MCF-7 cells; 25 μM, 24 h): 7.7 ± 1.7%
G0/G1 % (MCF-7 cells; 25 μM, 48 h): 15.4 ± 4.5%
G2/M % (MCF-7 cells; 25 μM, 48 h): 25.9 ± 4.1%
S % (MCF-7 cells; 25 μM, 48 h): 2.9 ± 0.6%
Sub-G1 % (MCF-7 cells; 25 μM, 48 h): 28.1 ± 3.1%
G0/G1 % (MCF-7 cells; 25 μM, 72 h): 17 ± 1.9%
G2/M % (MCF-7 cells; 25 μM, 72 h): 20.7 ± 2.2%
S % (MCF-7 cells; 25 μM, 72 h): 4.9 ± 2.2%
Sub-G1 % (MCF-7 cells; 25 μM, 72 h): 30.1 ± 3.1%

COc1ccc2c(c1OC)C(=O)O[C@@H]2[C@H]1c2c(cc3c(c2OC)OCO3)CCN1C [Nos, (S)-6,7-dimethoxy-3-((R)-4-methoxy-6-methyl-5,6,7,8-tetrahydro[1,3]-dioxolo-[4,5-g]isoquinolin-5-yl)isobenzo-furan-1(3H)-one, reference compound]
G0/G1 % (MCF-7 cells; 25 μM, 0 h): 54.8 ± 0.03%
G2/M % (MCF-7 cells; 25 μM, 0 h): 29.9 ± 2.2%
S % (MCF-7 cells; 25 μM, 0 h): 13.2 ± 0.2%
Sub-G1 % (MCF-7 cells; 25 μM, 0 h): 0.2 ± 0.03%
G0/G1 % (MCF-7 cells; 25 μM, 24 h): 18.3 ± 3.3%
G2/M % (MCF-7 cells; 25 μM, 24 h): 50.2 ± 3.6%
S % (MCF-7 cells; 25 μM, 24 h): 3.4 ± 0.8%
Sub-G1 % (MCF-7 cells; 25 μM, 24 h): 10.2 ± 1.2%
G0/G1 % (MCF-7 cells; 25 μM, 48 h): 19.8 ± 1.9%
G2/M % (MCF-7 cells; 25 μM, 48 h): 28.07 ± 0.2%
S % (MCF-7 cells; 25 μM, 48 h): 4.1 ± 0.6%
Sub-G1 % (MCF-7 cells; 25 μM, 48 h): 36.8 ± 3.7%
G0/G1 % (MCF-7 cells; 25 μM, 72 h): 20.5 ± 0.2%
G2/M % (MCF-7 cells; 25 μM, 72 h): 26.3 ± 0.2%
S % (MCF-7 cells; 25 μM, 72 h): 7.06 ± 0.2%
Sub-G1 % (MCF-7 cells; 25 μM, 72 h): 36.9 ± 0.2%
Kd (tubulin): 144 ± 2.8 µM
